According to patent US20140228425A1, “INHIBITOR FOR CORNEAL EPITHELIAL CELL DEATH, INHIBITOR CHARACTERIZED BY COMBINING HYALURONIC ACID AND FLAVIN ADENINE DINUCLEOTIDE” (SANTEN PHARMACEUTICAL CO., LTD., priority 2011, published 2014):
Where a name gives a salt, the structure may show the parent alone.

Experiments:
[1] = tested on: SV40 immortalized human corneal epithelial cells (HCE-T); assay: Pharmacological Test 2: treatment before UV-B irradiation (120 mJ/cm^2), cell death inhibition ratio; type: cell-based; details: for Cell death inhibition ratio: average N=3
Experimental: A test similar to Pharmacological test 1 was conducted with the irradiation condition of UV-B varied.
After conducting operations similar to those in Pharmacological test 1, the 10% FBS-containing DMEM/F-12 culture medium was replaced by PBS containing 0.05% (w/v) flavin adenine dinucleotide disodium salt, PBS containing 0.05% (w/v) sodium hyaluronate, PBS containing 0.05% (w/v) sodium hyaluronate and 0.05% (w/v) flavin adenine dinucleotide disodium salt, PBS containing 0.3% (w/v) sodium hyaluronate, PBS containing 0.3% (w/v) sodium hyaluronate and 0.05% (w/v) flavin adenine dinucleotide disodium salt, or PBS not containing a test substance (hereinafter, referred to as “0.05% FAD group”, “0.05% HA group”, “0.05% HA/0.05% FAD group”, “0.3% HA group”, “0.3% HA/0.05% FAD group” or “base group”, respectively). Then, corneal epithelial cells were irradiated with UV-B (120 mJ/cm^2) for about 2 minutes, and again operations similar to those in Pharmacological test 1 were conducted. Then, according to the expression 1, the viability was calculated, and further, according to the following expression 2, the cell death inhibition ratio of each group was calculated.
Cell death inhibition ratio (%)=Viability of each group−Viability of base group [Expression 2]

[2] = tested on: SV40 immortalized human corneal epithelial cells; assay: Pharmacological Test 4: treatment before exposure to dryness, viability of corneal epithelial cells; type: cell-based; details: treated 60 minutes before exposure to dryness for 15 minutes; 0.1% HA, 0.05% FAD or 0.1% HA/0.05% FAD in D-MEM/F12; FIG. 3
Experimental: Whether or not the decline of the number of living cells by dryness is inhibited when corneal epithelial cells are treated with the present agent before exposure to dryness was evaluated.
SV40 immortalized human corneal epithelial cells were inoculated in a 96-well plate (1×10^4 cells/well), and cultured in a 10% FBS-containing DMEM/F-12 culture medium for a day. On the next day, the culture medium was replaced by a D-MEM/F12 culture medium containing 0.1% (w/v) sodium hyaluronate, a D-MEM/F12 culture medium containing 0.05% (w/v) flavin adenine dinucleotide disodium salt, a D-MEM/F12 culture medium containing 0.1% (w/v) sodium hyaluronate and 0.05% (w/v) flavin adenine dinucleotide disodium salt, or a D-MEM/F12 culture medium not containing a test substance, and then cells were cultured at 37° C. for 60 minutes (hereinafter, referred to as “0.1% HA group”, “0.05% FAD group”, “0.1% HA/0.05% FAD group” or “base group”, respectively). After culturing, the culture medium of each group was removed, and then cells were exposed to dryness for 15 minutes. After exposure to dryness, the number of living cells was determined by using Cell Titer 96 (registered trade name) AQueous One Solution Cell Proliferation Assay, and the viability was calculated according to the following expression 4. […]

[3] = tested on: SV40 immortalized human corneal epithelial cells; assay: Pharmacological Test 3: treatment after UV-B irradiation (80 mJ/cm^2), viability of corneal epithelial cells; type: cell-based; details: treated 60 minutes after UV-B irradiation (80 mJ/cm^2, about 1 minute); 0.1% (w/v) sodium hyaluronate, 0.05% (w/v) flavin adenine dinucleotide disodium salt, or both; FIG. 2
Experimental: Whether or not the decline of the number of living cells by ultraviolet irradiation is inhibited when corneal epithelial cells are treated with the present agent after ultraviolet (UV-B) irradiation was evaluated.
SV40 immortalized human corneal epithelial cells were inoculated in a 96-well plate (1×10^4 cells/well), and cultured in a 10% FBS-containing DMEM/F-12 culture medium for a day. On the next day, corneal epithelial cells were irradiated with UV-B (80 mJ/cm^2) for about 1 minute. Then the 10% FBS-containing DMEM/F-12 culture medium was replaced by PBS containing 0.1% (w/v) sodium hyaluronate, PBS containing 0.05% (w/v) flavin adenine dinucleotide disodium salt, PBS containing 0.1% (w/v) sodium hyaluronate and 0.05% (w/v) flavin adenine dinucleotide disodium salt, or PBS not containing a test substance, and then cultured at 37° C. for 60 minutes (hereinafter, referred to as “0.1% HA group”, “0.05% FAD group”, “0.1% HA/0.05% FAD group” or “base group”, respectively). Then, after replacing the culture medium of each group by a 10% FBS-containing DMEM/F-12 culture medium, the cells were cultured at 37° C. for 24 hours, and then the number of living cells was determined by using Cell Titer 96 (registered trade name) AQueous One Solution Cell Proliferation Assay, and the viability was calculated according to the following expression 3. […]

[4] = Patent Document 1; cited from earlier work
[5] = tested on: corneal epithelial cells; details: Non-Patent Document 3; cited from earlier work
[6] = tested on: corneal epithelial cells; details: Non-Patent Document 1; cited from earlier work
[7] = single substance 0.05% (w/v) in PBS before UV-B (120 mJ/cm^2, about 2 minutes)

Compound | Cell death inhibition ratio [1, 7] [%] | action of inhibiting corneal epithelial cell death (in words) [2] | inhibition of corneal epithelial cell death (in words) [3] | also measured
sodium hyaluronate [HA] | −0.17 | an action of inhibiting corneal epithelial cell death was observed | little observed | Cell death inhibition ratio ([1]; single substance 0.3% (w/v) in PBS before UV-B (120 mJ/cm^2, about 2 minutes)): 4.17%; inhibition of corneal epithelial cell death by UV-B irradiation (in words) ([1]; treatment before UV-B irradiation (120 mJ/cm^2, about 2 minutes)): little inhibit
Cc1cc2nc3c(=O)[nH]c(=O)nc-3n(C[C@H](O)[C@H](O)[C@H](O)COP(=O)(O)OP(=O)(O)OC[C@H]3O[C@@H](n4cnc5c(N)ncnc54)C(O)C3O)c2cc1C (stereo partly drawn) [FAD or the like, flavin adenine dinucleotide (FAD) or a salt thereof] | – | – | – | lacrimal secretagogue action [4]: has a lacrimal secretagogue action
hyaluronic acid or a salt thereof [hyaluronic acid or the like] | – | – | – | cell death of corneal epithelial cells induced by dryness [5]: does not inhibit; Caspase-3/7 activation by UV-B irradiation [6]: inhibits; increase in production of active oxygen by corneal epithelial cells by UV-B irradiation [6]: inhibits
Cc1cc2nc3c(=O)[nH]c(=O)nc-3n(C[C@H](O)[C@H](O)[C@H](O)COP(=O)([O-])OP(=O)([O-])OC[C@H]3O[C@@H](n4cnc5c(N)ncnc54)[C@H](O)[C@@H]3O)c2cc1C.[Na+].[Na+] [FAD, flavin adenine dinucleotide disodium salt] | 48.78 | the action was not observed | little observed | –
